The source of these data is BindingDB's records for patent US20240190892 (Merck Sharp & Dohme, 2024).

Molecules are shown by their SMILES. A value given as a limit tells only on which side of the number the result lay.

One test deals with Plasma kallikrein (Homo sapiens, UniProt P03952). Nature of the test: Plasma Kallikrein Assay. How it is done: (§1) The effectiveness of a compound of the present invention as an inhibitor of plasma kallikrein can be determined using a relevant purified serine protease, and an appropriate synthetic substrate. The rate of hydrolysis of the chromogenic or fluorogenic substrate by the relevant serine protease was measured both in the absence and presence of compounds of the present invention. Assays were conducted at rt or at 37° C. […] A decrease in the rate of fluorescence change in the presence of inhibitor is indicative of enzyme inhibition. Such methods are known to one skilled in the art. The results of this assay are expressed as the half-maximal inhibitory concentrations (IC50), or the inhibitory constant, Ki.
Sequence of Plasma kallikrein (P03952 20-390 limits assumed): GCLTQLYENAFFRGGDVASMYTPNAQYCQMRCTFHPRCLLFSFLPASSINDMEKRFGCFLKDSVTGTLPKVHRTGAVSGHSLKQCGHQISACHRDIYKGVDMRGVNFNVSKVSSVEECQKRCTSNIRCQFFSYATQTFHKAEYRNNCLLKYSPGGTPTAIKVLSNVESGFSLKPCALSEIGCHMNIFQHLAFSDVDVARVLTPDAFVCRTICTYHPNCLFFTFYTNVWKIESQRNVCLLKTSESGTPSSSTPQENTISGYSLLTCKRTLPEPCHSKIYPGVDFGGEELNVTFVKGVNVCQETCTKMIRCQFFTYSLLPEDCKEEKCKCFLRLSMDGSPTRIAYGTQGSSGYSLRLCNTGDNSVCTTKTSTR
Sequence of Plasma kallikrein (P03952 391-638 limits assumed): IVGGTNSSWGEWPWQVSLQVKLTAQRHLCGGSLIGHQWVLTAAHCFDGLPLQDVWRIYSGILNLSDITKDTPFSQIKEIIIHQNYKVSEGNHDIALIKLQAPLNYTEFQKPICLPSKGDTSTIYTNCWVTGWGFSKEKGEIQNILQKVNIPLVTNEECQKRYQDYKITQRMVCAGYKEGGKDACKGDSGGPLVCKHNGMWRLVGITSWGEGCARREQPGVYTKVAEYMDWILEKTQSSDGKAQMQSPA

Another test has as its target Coagulation factor XI (Homo sapiens, UniProt P03951). Nature of the test: Factor XIa Assay. How it is done:
as §1, with “Coagulation factor XIa” for “plasma kallikrein”

Sequence of Coagulation factor XI (P03951 19-387 limits assumed): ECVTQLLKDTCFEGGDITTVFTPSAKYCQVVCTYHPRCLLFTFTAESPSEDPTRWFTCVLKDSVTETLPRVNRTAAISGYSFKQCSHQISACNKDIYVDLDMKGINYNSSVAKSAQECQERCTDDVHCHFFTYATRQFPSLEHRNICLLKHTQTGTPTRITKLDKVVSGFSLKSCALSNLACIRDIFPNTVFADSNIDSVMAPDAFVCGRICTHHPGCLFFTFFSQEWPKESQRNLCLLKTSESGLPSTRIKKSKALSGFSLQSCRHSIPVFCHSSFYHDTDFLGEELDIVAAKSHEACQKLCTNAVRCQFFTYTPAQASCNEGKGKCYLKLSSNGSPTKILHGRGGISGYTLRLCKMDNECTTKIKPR
Sequence of Coagulation factor XI (P03951 388-625 limits assumed): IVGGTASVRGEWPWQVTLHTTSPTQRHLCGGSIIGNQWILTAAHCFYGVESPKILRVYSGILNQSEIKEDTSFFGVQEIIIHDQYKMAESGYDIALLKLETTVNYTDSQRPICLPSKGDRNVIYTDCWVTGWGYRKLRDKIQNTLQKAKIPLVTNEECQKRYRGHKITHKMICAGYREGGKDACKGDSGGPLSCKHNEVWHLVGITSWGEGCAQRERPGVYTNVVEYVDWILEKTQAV

A word on the IC50: it is the concentration that inhibits the measured activity by half. The low end stands for greater potency, the high end for weaker potency. In the case of `CC1(O)CN(c2ccc(CNC(=O)c3cncc(N4CC[C@]5(C4)OC(=O)Nc4ccc(Cl)c(F)c45)n3)cn2)C1` [US20240190892, Example 35], the IC50 against Plasma kallikrein was 28.4 nM; against Coagulation factor XI, at least 10000 nM.
